Read-outs that look alike come from different tables or passages of the source.
Columns and labels:
17β-HSD3 [1] = biological target: T1, 17β-HSD3 (Homo sapiens, UniProt P37058); test: Inhibition of 17β-HSD3 in homogenated HEK-293 cells; type: biochemical
T1 construct: expressed in transfected cells; host or cells: HEK-293 (homogenate)
T1 sequence (P37058 1-310): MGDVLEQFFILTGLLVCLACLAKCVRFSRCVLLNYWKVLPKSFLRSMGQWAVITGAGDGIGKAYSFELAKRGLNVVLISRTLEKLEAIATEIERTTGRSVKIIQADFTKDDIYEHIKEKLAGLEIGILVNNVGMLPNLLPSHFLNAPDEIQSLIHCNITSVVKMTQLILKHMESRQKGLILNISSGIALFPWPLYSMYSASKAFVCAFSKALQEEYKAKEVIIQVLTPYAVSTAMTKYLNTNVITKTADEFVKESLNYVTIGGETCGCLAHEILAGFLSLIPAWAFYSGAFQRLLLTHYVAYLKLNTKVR

17β-HSD3 [2] = biological target: T1, 17β-HSD3; test: Inhibition of 17β-HSD3 in intact HEK-293 cells; type: cell-based; conditions: for inhibition at 1 µM / inhibition at 0.1 µM: HEK293, 1 h
[3] = Table 2 (17β-HSD3), [14C]-Δ4-dione 50 nM into [14C]-T, read-out: Homo (%) (0.01 μM)
[4] = read-out: Homo (%) (0.1 μM), Table 2 (17β-HSD3)
[5] = read-out: Homo (%) (1 μM), Table 2 (17β-HSD3), 1 μM
[6] = read-out: Intact cells (%) (1 μM), Table 2 (17β-HSD3), 1 μM
[7] = read-out: Homo (%) (0.01 μM), Table 4
[8] = read-out: Homo (%) (0.1 μM), Table 4
[9] = read-out: Intact cells (%) (0.1 μM), Table 4, 0.1 μM
[10] = read-out: Homo (%) (1.0 μM), Table 4, 1.0 μM
[11] = Table 2 (17β-HSD3), read-out: Homo (%) (0.1 μM)
[12] = Table 2 (17β-HSD3), 1 μM, read-out: Homo (%) (1 μM)
[13] = Table 2 (17β-HSD3), 0.1 μM, read-out: Intact cells (%) (0.1 μM)
[14] = Table 2 (17β-HSD3), 1 μM, read-out: Intact cells (%) (1 μM)

## C[C@]12CC[C@](O)(CN3CCC(Cc4ccccc4)CC3)C[C@@H]1CC[C@@H]1[C@@H]2CC[C@]2(C)C(=O)CC[C@@H]12 [Compound 7f, (3α,5α)-3-[(4-benzylpiperidin-1-yl)methyl]-3-hydroxyandrostan-17-one]
17β-HSD3 [1]; [3]
  inhibition at 0.01 µM: 40%
17β-HSD3 [1]; [4]
  inhibition at 0.1 µM: 82%
17β-HSD3 [1]; [5]
  inhibition at 1 µM: 90%
17β-HSD3 [2]; [6]
  inhibition at 1 µM: 52%

## C[C@]12CC[C@@]3(C[C@@H]1CC[C@@H]1[C@@H]2CC[C@]2(C)C(=O)CC[C@@H]12)CN(Cc1ccc(C(F)(F)F)cc1)C(=O)O3 [Compound 17d, (3R,5S,8R,9S,10S,13S,14S)-10,13-dimethyl-3′-[4-(trifluoromethyl)benzyl]tetradecahydro-2′H-spiro[cyclopenta[α]phenanthrene-3,5′-[1,3]oxazolidine]-2′,17(2H)-dione]
17β-HSD3 [1]; [7]
  inhibition at 0.01 µM: 25%
17β-HSD3 [1]; [8]
  inhibition at 0.1 µM: 80%
17β-HSD3 [2]; [9]
  inhibition at 0.1 µM: 43%

## C[C@]12CC[C@@]3(C[C@@H]1CC[C@@H]1[C@@H]2CC[C@]2(C)C(=O)CC[C@@H]12)CN(CCC(CN1CCOCC1)OC(=O)CCC1CCCC1)C(=O)O3 (stereo partly shown) [Compound 4, reference compound]
17β-HSD3 [1]; [7]
  inhibition at 0.01 µM: 2%
17β-HSD3 [1]; [8]
  inhibition at 0.1 µM: 79%
17β-HSD3 [1]; [10]
  inhibition at 1 µM: 94%
17β-HSD3 [2]; [9]
  inhibition at 0.1 µM: 49%

## C[C@]12CC[C@](O)(CN3CCN(C(=O)C4CCCCC4)CC3)C[C@@H]1CC[C@@H]1[C@@H]2CC[C@]2(C)C(=O)CC[C@@H]12 [Compound 12b, (3α,5α)-3-{[4-(cyclohexylcarbonyl)piperazin-1-yl]methyl}-3-hydroxyandrostan-17-one]
17β-HSD3 [1]; Table 3
  Homo (%) (0.01 μM): 19%
  Homo (%) (0.1 μM): 75%
17β-HSD3 [2]; Table 3, footnote b, 1 μM
  Intact cells (%), tested at 1 μM: N/A (70)^b %

## CC1CN(C[C@@]2(O)CC[C@@]3(C)[C@@H](CC[C@@H]4[C@@H]3CC[C@]3(C)C(=O)CC[C@@H]43)C2)C(C)CN1Cc1cc(C(F)(F)F)cc(C(F)(F)F)c1 (stereo partly drawn) [Compound 11j, (3α,5α)-3-({(2ξ,5ξ)-4-[3,5-bis(trifluoromethyl)benzyl]-2,5-dimethylpiperazin-1-yl}methyl)-3-hydroxyandrostan-17-one]
17β-HSD3 [1]; Table 3
  Homo (%) (0.01 μM): 25%
  Homo (%) (0.1 μM): 74%
17β-HSD3 [2]; Table 3, 0.1 μM
  Intact cells (%) (0.1 μM): 16%

## CCCCN(CCCC)C[C@@]1(O)CC[C@@]2(C)[C@@H](CC[C@@H]3[C@@H]2CC[C@]2(C)C(=O)CC[C@@H]32)C1 [Compound 7d, (3α,5α)-3-[(dibutylamino)methyl]-3-hydroxyandrostan-17-one]
17β-HSD3 [1]; [11]
  inhibition at 0.1 µM: 70%
17β-HSD3 [1]; [12]
  inhibition at 1 µM: 85%
17β-HSD3 [1]; [3]
  inhibition at 0.01 µM: 13%
17β-HSD3 [2]; [13]
  inhibition at 0.1 µM: 53%
17β-HSD3 [2]; [14]
  inhibition at 1 µM: 90%

## CC1CN(CC2(O)CCC3(C)C(CCC4C5CCC(=O)C5(C)CCC43)C2)C(C)CN1Cc1ccc(C(F)(F)F)cc1C(F)(F)F (stereo not drawn) [Compound 11i, (3α,5α)-3-({(2ξ,5ξ)-4-[2,4-bis(trifluoromethyl)benzyl]-2,5-dimethylpiperazin-1-yl}methyl)-3-hydroxyandrostan-17-one]
17β-HSD3 [1]; Table 3
  Homo (%) (0.01 μM): 15%
  Homo (%) (0.1 μM): 71%
17β-HSD3 [2]; Table 3, 0.1 μM
  Intact cells (%) (0.1 μM): 21%

## C[C@]12CC[C@@]3(C[C@@H]1CC[C@@H]1[C@@H]2CC[C@]2(C)C(=O)CC[C@@H]12)CN(Cc1ccccc1C(F)(F)F)C(=O)O3 [Compound 17f, (3R,5S,8R,9S,10S,13S,14S)-10,13-dimethyl-3′-[2-(trifluoromethyl)benzyl]tetradecahydro-2′H-spiro[cyclopenta[α]phenanthrene-3,5′-[1,3]oxazolidine]-2′,17(2H)-dione]
17β-HSD3 [1]; [7]
  inhibition at 0.01 µM: 17%
17β-HSD3 [1]; [8]
  inhibition at 0.1 µM: 81%
17β-HSD3 [2]; [9]
  inhibition at 0.1 µM: 35%

## CN(Cc1ccccc1)C[C@@]1(O)CC[C@@]2(C)[C@@H](CC[C@@H]3[C@@H]2CC[C@]2(C)C(=O)CC[C@@H]32)C1 [Compound 7b, (3α,5α)-3-{[benzyl(methyl)amino]methyl}-3-hydroxyandrostan-17-one]
17β-HSD3 [1]; [11]
  inhibition at 0.1 µM: 79%
17β-HSD3 [1]; [12]
  inhibition at 1 µM: 89%
17β-HSD3 [1]; [3]
  inhibition at 0.01 µM: 28%
17β-HSD3 [2]; [13]
  inhibition at 0.1 µM: 48%
17β-HSD3 [2]; [14]
  inhibition at 1 µM: 92%

## CC1CN(C[C@@]2(O)CC[C@@]3(C)[C@@H](CC[C@@H]4[C@@H]3CC[C@]3(C)C(=O)CC[C@@H]43)C2)C(C)CN1Cc1cc(C(F)(F)F)ccc1C(F)(F)F (stereo partly drawn) [Compound 11h, (3α,5α)-3-({(2ξ,5ξ)-4-[2,5-bis(trifluoromethyl)benzyl]-2,5-dimethylpiperazin-1-yl}methyl)-3-hydroxyandrostan-17-one]
17β-HSD3 [1]; Table 3
  Homo (%) (0.01 μM): 16%
  Homo (%) (0.1 μM): 71%
17β-HSD3 [2]; Table 3, 0.1 μM
  Intact cells (%) (0.1 μM): 23%

## CC1CN(C(=O)C2CCCCC2)C(C)CN1C[C@@]1(O)CC[C@@]2(C)[C@@H](CC[C@@H]3[C@@H]2CC[C@]2(C)C(=O)CC[C@@H]32)C1 (stereo partly drawn) [Compound 13b, (3α,5α)-3-{[(2ξ,5ξ)-4-(cyclohexylcarbonyl)-2,5-dimethylpiperazin-1-yl]methyl}-3-hydroxyandrostan-17-one]
17β-HSD3 [1]; Table 3
  Homo (%) (0.01 μM): 24%
  Homo (%) (0.1 μM): 90%
17β-HSD3 [2]; Table 3, 0.1 μM
  Intact cells (%) (0.1 μM): 77%

## Cc1cccc(S(=O)(=O)CCN2C[C@]3(CC[C@@]4(C)[C@@H](CC[C@@H]5[C@@H]4CC[C@]4(C)C(=O)CC[C@@H]54)C3)OC2=O)c1 [Compound 23b]
17β-HSD3 [1]; [7]
  inhibition at 0.01 µM: 0%
17β-HSD3 [1]; [8]
  inhibition at 0.1 µM: 52%
17β-HSD3 [1]; [10]
  inhibition at 1 µM: 93%
17β-HSD3 [2]; [9]
  inhibition at 0.1 µM: 5%

## CN1CCN(C[C@@]2(O)CC[C@@]3(C)[C@@H](CC[C@@H]4[C@@H]3CC[C@]3(C)C(=O)CC[C@@H]43)C2)CC1 [Compound 7h, (3α,5α)-3-hydroxy-3-[(4-methylpiperazin-1-yl)methyl]androstan-17-one]
17β-HSD3 [1]; [11]
  inhibition at 0.1 µM: 0%
17β-HSD3 [1]; [12]
  inhibition at 1 µM: 40%
17β-HSD3 [1]; [3]
  inhibition at 0.01 µM: 0%
17β-HSD3 [2]; [13]
  inhibition at 0.1 µM: 2%

## C[C@]12CC[C@](O)(CN3CCC(N4CCCCC4)CC3)C[C@@H]1CC[C@@H]1[C@@H]2CC[C@]2(C)C(=O)CC[C@@H]12 [Compound 7g, (3α,5α)-3-(1,4′-bipiperidin-1′-ylmethyl)-3-hydroxyandrostan-17-one]
17β-HSD3 [1]; [11]
  inhibition at 0.1 µM: 4%
17β-HSD3 [1]; [12]
  inhibition at 1 µM: 69%
17β-HSD3 [1]; [3]
  inhibition at 0.01 µM: 0%
17β-HSD3 [2]; [14]
  inhibition at 1 µM: 20%

## Cc1ccc(CN2C[C@]3(CC[C@@]4(C)[C@@H](CC[C@@H]5[C@@H]4CC[C@]4(C)C(=O)CC[C@@H]54)C3)OC2=O)cc1 [Compound 17b, (3R,5S,8R,9S,10S,13S,14S)-10,13-dimethyl-3′-(4-methylbenzyl)tetrahydrodecahydro-2′H-spiro[cyclopenta[α]phenanthrene-3,5′-[1,3]oxazolidine]-2′,17(2H)-dione]
17β-HSD3 [1]; [7]
  inhibition at 0.01 µM: 17%
17β-HSD3 [1]; [8]
  inhibition at 0.1 µM: 81%
17β-HSD3 [1]; [10]
  inhibition at 1 µM: 93%
17β-HSD3 [2]; [9]
  inhibition at 0.1 µM: 38%

## C[C@]12CC[C@@]3(C[C@@H]1CC[C@@H]1[C@@H]2CC[C@]2(C)C(=O)CC[C@@H]12)CN(Cc1ccc(C(F)(F)F)nc1)C(=O)O3 [Compound 17e]
17β-HSD3 [1]; [7]
  inhibition at 0.01 µM: 3%
17β-HSD3 [1]; [8]
  inhibition at 0.1 µM: 65%
17β-HSD3 [2]; [9]
  inhibition at 0.1 µM: 36%

## C[C@]12CC[C@](O)(CN3CCN(Cc4ccc(C(F)(F)F)cc4)CC3)C[C@@H]1CC[C@@H]1[C@@H]2CC[C@]2(C)C(=O)CC[C@@H]12 [Compound 10c, (3α,5α)-3-hydroxy-3-({4-[4-(trifluoromethyl)benzyl]piperazin-1-yl}methyl)androstan-17-one]
17β-HSD3 [1]; Table 3, read-out: Homo (%) (0.01 μM)
  inhibition at 0.01 µM: 14%
17β-HSD3 [1]; Table 3, read-out: Homo (%) (0.1 μM)
  inhibition at 0.1 µM: 81%
17β-HSD3 [2]; Table 3, 0.1 μM, read-out: Intact cells (%) (0.1 μM)
  inhibition at 0.1 µM: 33%

## C[C@]12CC[C@](O)(CN3CCN(Cc4ccc(C(F)(F)F)cc4C(F)(F)F)CC3)C[C@@H]1CC[C@@H]1[C@@H]2CC[C@]2(C)C(=O)CC[C@@H]12 [Compound 10i, (3α,5α)-3-({4-[2,4-bis(trifluoromethyl)benzyl]piperazin-1-yl}methyl)-3-hydroxyandrostan-17-one]
17β-HSD3 [1]; Table 3
  Homo (%) (0.01 μM): 22%
  Homo (%) (0.1 μM): 75%
17β-HSD3 [2]; Table 3, 0.1 μM
  Intact cells (%) (0.1 μM): 16%

## C[C@]12CC[C@@]3(C[C@@H]1CC[C@@H]1[C@@H]2CC[C@]2(C)C(=O)CC[C@@H]12)CN(CCN1CCCCC1)C(=O)O3 [Compound 23c, (3R,5S,8R,9S,10S,13S,14S)-10,13-dimethyl-3′-[2-(piperidin-1-yl)ethyl]tetrahydrodecahydro-2′H-spiro[cyclopenta[α]phenanthrene-3,5′-[1,3]oxazolidine]-2′,17(2H)-dione]
17β-HSD3 [1]; [7]
  inhibition at 0.01 µM: 0%
17β-HSD3 [1]; [8]
  inhibition at 0.1 µM: 0%
17β-HSD3 [1]; [10]
  inhibition at 1 µM: 21%
17β-HSD3 [2]; Table 4, footnote b, 0.1 μM
  Intact cells (%) (0.1 μM), tested in another experiment: 10^b %

## C[C@]12CC[C@](O)(CN3CCCCC3)C[C@@H]1CC[C@@H]1[C@@H]2CC[C@]2(C)C(=O)CC[C@@H]12 [Compound 7e, (3α,5α)-3-hydroxy-3-(piperidin-1-ylmethyl)androstan-17-one]
17β-HSD3 [1]; [3]
  inhibition at 0.01 µM: 9%
17β-HSD3 [1]; [4]
  inhibition at 0.1 µM: 19%
17β-HSD3 [1]; [5]
  inhibition at 1 µM: 69%
17β-HSD3 [2]; [6]
  inhibition at 1 µM: 23%

## C[C@]12CCC(=O)C=C1CC[C@@H]1[C@@H]2CC[C@]2(C)C(=O)CC[C@@H]12 [Δ^4-dione, 4-androstene-3,17-dione, reference compound]
17β-HSD3 [2]; intact HEK-293 cells overexpressing 17β-HSD3, [14C]-Δ4-dione 50 nM
  IC50: 337 nM
